In brackets after ≈: the same amount, converted by molar mass. Activity calls are given as the source filed them. No cut-off for these calls is given here.
Legend:
Jurkat = assay: Cytotoxicity against human Jurkat cells at 20 ug/ml; assay type: functional, cell-based
KB = assay: Cytotoxicity against human KB cells; assay type: functional, cell-based

Row | SMILES | Activity (Jurkat) | IC50 (KB) [µg/mL]
1 | CC[C@H]1C[C@H]([C@@H](C)C2[C@@H](O)C[C@H]3C4=CC[C@H]5C[C@@H](O[C@@H]6O[C@H](CO)[C@@H](O)[C@H](O)[C@H]6O[C@@H]6O[C@H](CO)[C@@H](O)[C@H](O)[C@H]6O)CC[C@]5(C)[C@H]4CC[C@]23C)O[C@]1(C)CO[C@@H]1O[C@H](CO)[C@@H](O)[C@H](O)[C@H]1O[C@@H]1O[C@H](CO)[C@@H](O)[C@H](O)[C@H]1O (stereo partly specified) | inactive | 
2 | CC[C@H]1[C@H](O)[C@H]([C@@H](C)[C@@]2(O)[C@@H](O)C[C@H]3C4=CC[C@H]5C[C@@H](O[C@@H]6O[C@H](COC(C)=O)[C@@H](O)[C@H](O)[C@H]6O)CC[C@]5(C)[C@H]4CC[C@@]32C)O[C@]1(C)COC(C)=O | inactive | 
3 | CC[C@H]1[C@H](O)[C@H]([C@@H](CO)[C@@]2(O)[C@@H](O)C[C@H]3C4=CC[C@H]5C[C@@H](O)CC[C@]5(C)[C@H]4CC[C@@]32C)O[C@]1(C)CO [AJUGASALICIGENIN] | inactive | 1 (≈ 1.97 µM)
4 | CC[C@H]1[C@H](O)[C@H]([C@@H](CO)[C@@]2(O)[C@@H](O)C[C@H]3C4=CC[C@H]5C[C@@H](O[C@@H]6O[C@H](CO)[C@@H](O)[C@H](O)[C@H]6O)CC[C@]5(C)[C@H]4CC[C@@]32C)O[C@]1(C)CO [AJUGASALICIOSIDE F] | inactive | 13 (≈ 19.4 µM)

Source: ChEMBL document CHEMBL1159353, “New stigmastane sterols from Ajuga salicifolia” (J Nat Prod, 2003)
